The values that follow come from ChEMBL document CHEMBL4765420, “Design, synthesis and biological evaluation of novel HDAC inhibitors with improved pharmacokinetic profile in breast cancer” (Eur J Med Chem, 2020).

Assay [1] has as its system MDA-MB-231. Description: Induction of endoplasmic reticulum stress in human MDA-MB-231 cells assessed as increase in PERK expression at 2.5 to 10 uM measured after 24 hrs by Western blot analysis. It counts as functional, cell-based. The conditions noted are these: dose 2.5-10 µM. (In general: In western blotting, separated proteins are transferred to a membrane and probed.)

The target in another assay is Histone deacetylase 9 (Homo sapiens, UniProt Q9UKV0). Description: Inhibition of recombinant human full-length N-terminal GST-tagged HDAC9 (1 to 1069 residues) expressed in wheat germ expression system using Ac-Leu-Gly-Lys(Tfa)-AMC as substrate measured after 30 mins by fluorescence assay.
Histone deacetylase 9, sequence (Q9UKV0 whole entry, the tested form may be a part): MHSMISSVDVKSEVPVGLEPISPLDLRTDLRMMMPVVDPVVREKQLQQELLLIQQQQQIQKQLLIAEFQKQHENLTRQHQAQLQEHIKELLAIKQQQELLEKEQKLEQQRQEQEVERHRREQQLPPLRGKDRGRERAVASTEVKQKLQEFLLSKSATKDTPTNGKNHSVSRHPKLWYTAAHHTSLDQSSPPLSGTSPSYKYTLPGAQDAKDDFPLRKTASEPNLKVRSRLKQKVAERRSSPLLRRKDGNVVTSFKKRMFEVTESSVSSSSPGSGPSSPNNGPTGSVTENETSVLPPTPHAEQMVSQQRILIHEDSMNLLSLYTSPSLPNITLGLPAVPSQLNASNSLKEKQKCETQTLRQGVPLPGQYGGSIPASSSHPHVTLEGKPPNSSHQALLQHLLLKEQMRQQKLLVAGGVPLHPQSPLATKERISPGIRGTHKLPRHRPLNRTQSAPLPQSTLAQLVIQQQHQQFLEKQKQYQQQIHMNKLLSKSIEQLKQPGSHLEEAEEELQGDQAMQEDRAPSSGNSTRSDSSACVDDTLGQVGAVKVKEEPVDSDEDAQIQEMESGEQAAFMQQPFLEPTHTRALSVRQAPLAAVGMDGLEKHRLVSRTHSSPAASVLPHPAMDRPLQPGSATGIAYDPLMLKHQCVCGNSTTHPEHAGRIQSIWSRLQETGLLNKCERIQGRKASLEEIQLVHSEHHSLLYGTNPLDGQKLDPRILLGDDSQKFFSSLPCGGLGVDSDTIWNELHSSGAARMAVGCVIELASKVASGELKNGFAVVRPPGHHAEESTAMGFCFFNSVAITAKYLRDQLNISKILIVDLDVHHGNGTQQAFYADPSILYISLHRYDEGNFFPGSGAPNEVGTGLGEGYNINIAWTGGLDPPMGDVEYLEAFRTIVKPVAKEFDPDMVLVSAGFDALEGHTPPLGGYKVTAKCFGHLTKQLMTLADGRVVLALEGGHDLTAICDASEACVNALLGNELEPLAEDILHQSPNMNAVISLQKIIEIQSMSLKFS
The subject of assay [2] is MDA-MB-231. As to the kind of experiment: Induction of apoptosis in human MDA-MB-231 cells measured after 24 hrs by Annexin-V/propidium iodide staining based flow cytometry. It counts as functional, cell-based. (In general: In flow cytometry, cells or beads pass a laser one at a time.)
Assay [3] concerns MDA-MB-231. Description: Induction of apoptosis in human MDA-MB-231 cells assessed as viable cells at 2.5 uM measured after 24 hrs by Annexin-V/propidium iodide staining based flow cytometry (reference value: 95.68 to 98.38%). The class given is functional. The conditions noted are these: read-out: Activity.
In assay [4] the test system is MDA-MB-231. Description: Induction of apoptosis in human MDA-MB-231 cells assessed as viable cells at 5 uM measured after 24 hrs by Annexin-V/propidium iodide staining based flow cytometry (reference value: 95.68 to 98.38%). The conditions noted are these: read-out: Activity. It counts as functional.
In assay [5] the test system is MDA-MB-231. As to the kind of experiment: Induction of apoptosis in human MDA-MB-231 cells assessed as early apoptotic cells at 2.5 uM measured after 24 hrs by Annexin-V/propidium iodide staining based flow cytometry (reference value: 0.69 to 0.92%). The class given is functional.
Assay [6] relates to MDA-MB-231. Description: Induction of apoptosis in human MDA-MB-231 cells assessed as viable cells at 10 uM measured after 24 hrs by Annexin-V/propidium iodide staining based flow cytometry (reference value: 95.68 to 98.38%). The class given is functional. The conditions noted are these: read-out: Activity.
Assay [7] has as its target T1, Protein deacetylase HDAC6 (Homo sapiens) (UniProt Q9UBN7).
T1 sequence (whole entry): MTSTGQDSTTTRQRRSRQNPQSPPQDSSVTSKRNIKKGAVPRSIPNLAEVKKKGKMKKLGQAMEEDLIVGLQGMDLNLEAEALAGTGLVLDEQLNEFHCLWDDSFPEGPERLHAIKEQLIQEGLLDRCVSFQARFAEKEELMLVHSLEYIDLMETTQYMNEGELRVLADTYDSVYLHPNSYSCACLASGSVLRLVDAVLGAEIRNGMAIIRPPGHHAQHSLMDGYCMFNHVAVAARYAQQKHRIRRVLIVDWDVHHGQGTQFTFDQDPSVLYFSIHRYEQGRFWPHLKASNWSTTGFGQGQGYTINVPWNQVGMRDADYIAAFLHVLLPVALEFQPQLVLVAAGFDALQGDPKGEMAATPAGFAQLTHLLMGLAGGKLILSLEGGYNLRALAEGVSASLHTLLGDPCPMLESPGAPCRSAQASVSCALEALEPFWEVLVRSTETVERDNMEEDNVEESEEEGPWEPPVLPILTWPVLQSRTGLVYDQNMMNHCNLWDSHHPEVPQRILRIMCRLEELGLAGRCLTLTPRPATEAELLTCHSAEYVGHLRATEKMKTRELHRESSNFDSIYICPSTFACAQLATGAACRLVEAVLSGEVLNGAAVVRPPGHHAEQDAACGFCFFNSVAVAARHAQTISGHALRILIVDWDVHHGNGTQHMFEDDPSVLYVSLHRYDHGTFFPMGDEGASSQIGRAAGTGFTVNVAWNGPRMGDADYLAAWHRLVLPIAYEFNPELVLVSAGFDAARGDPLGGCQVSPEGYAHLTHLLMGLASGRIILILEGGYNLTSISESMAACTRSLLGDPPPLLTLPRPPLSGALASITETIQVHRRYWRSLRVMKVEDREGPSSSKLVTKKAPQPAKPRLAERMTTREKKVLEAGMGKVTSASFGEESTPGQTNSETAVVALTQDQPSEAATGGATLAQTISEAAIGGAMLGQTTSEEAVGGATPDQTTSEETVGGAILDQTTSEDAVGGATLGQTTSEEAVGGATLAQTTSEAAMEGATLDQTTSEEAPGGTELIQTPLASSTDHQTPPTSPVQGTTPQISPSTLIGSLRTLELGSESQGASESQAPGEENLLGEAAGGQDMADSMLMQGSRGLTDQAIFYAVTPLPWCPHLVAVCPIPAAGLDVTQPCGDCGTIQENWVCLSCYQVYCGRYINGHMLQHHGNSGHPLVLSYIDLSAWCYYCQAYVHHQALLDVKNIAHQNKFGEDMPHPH
As to the kind of experiment: Inhibition of HDAC6 in human MDA-MB-231 cells assessed as increase in alpha-tubulin acetylation at 2.5 to 10 uM measured after 24 hrs by Western blot analysis. The conditions noted are these: dose 2.5-10 µM. It counts as cell-based.

Assay [8] has as its system MDA-MB-231. As to the kind of experiment: Antiproliferative activity against human MDA-MB-231 cells measured after 96 hrs by MTT assay. The class given is functional, cell-based. The conditions noted are these: MDA-MB-231, 96 h. Background: Tetrazolium assays rely on reduction of a dye to a coloured formazan, in cell work by metabolically active cells.
The subject of assay [9] is MDA-MB-231. Description: Induction of apoptosis in human MDA-MB-231 cells assessed as late apoptotic cells at 5 uM measured after 24 hrs by Annexin-V/propidium iodide staining based flow cytometry (reference value: 0.71 to 2.94%). It counts as functional.
Assay [10] concerns MDA-MB-231. As to the kind of experiment: Induction of apoptosis in human MDA-MB-231 cells assessed as late apoptotic cells at 10 uM measured after 24 hrs by Annexin-V/propidium iodide staining based flow cytometry (reference value: 0.71 to 2.94%). It counts as functional.
In assay [11] the test system is MDA-MB-231. Description: Antiproliferative activity against human MDA-MB-231 cells measured after 72 hrs by MTT assay. The conditions noted are these: MDA-MB-231, 72 h. The class given is functional, cell-based.
In assay [12] the test system is MDA-MB-231. As to the kind of experiment: Induction of apoptosis in human MDA-MB-231 cells assessed as increase in cleaved caspase-3 expression at 2.5 to 10 uM measured after 24 hrs by Western blot analysis. The class given is functional, cell-based. The conditions noted are these: dose 2.5-10 µM.
The subject of assay [13] is MDA-MB-231. Description: Induction of apoptosis in human MDA-MB-231 cells assessed as up regulation of Bax expression at 2.5 to 10 uM measured after 24 hrs by Western blot analysis. The class given is functional, cell-based. The conditions noted are these: dose 2.5-10 µM.
Assay [14] has as its system MDA-MB-231. Description: Induction of autophagy in human MDA-MB-231 cells expressing GFP-mRFP-LC3 assessed as increase in LC3 punta aggregation at 2.5 to 10 uM measured after 24 hrs by immunofluorescence assay. The conditions noted are these: dose 2.5-10 µM. It counts as functional, cell-based.
The test system of assay [15] is MDA-MB-231. Description: Induction of apoptosis in human MDA-MB-231 cells assessed as down regulation of Bcl-2 expression at 2.5 to 10 uM measured after 24 hrs by Western blot analysis. It counts as functional, cell-based. The conditions noted are these: dose 2.5-10 µM.
Assay [16] has as its system MDA-MB-231. Description: Induction of autophagy in human MDA-MB-231 cells assessed as increase in Beclin1 expression at 2.5 to 10 uM measured after 24 hrs by Western blot analysis. The class given is functional, cell-based. The conditions noted are these: dose 2.5-10 µM.
The subject of assay [17] is MDA-MB-231. As to the kind of experiment: Inhibition of cell migration in human MDA-MB-231 cells measured after 24 hrs by phase-contrast microscopy based wound healing assay. The class given is functional.

Structures are written as SMILES. The source made the active and inactive calls. The calls are words filed in the database; no cut-off is given here.

With `COc1cc(OC)c2c(N3CCS(=O)(=O)CC3)nc(-c3cc(C)c(OCCCCCC(=O)NO)c(C)c3)nc2c1`, the result in the assay on MDA-MB-231 [1], with MDA-MB-231 [12], in the assay with MDA-MB-231 [13], in the assay with MDA-MB-231 [14], in the assay on MDA-MB-231 [15] and in the assay with MDA-MB-231 [16] was Active. Moreover, the results for the IC50 at Histone deacetylase 9, with MDA-MB-231 [8] and in the assay with MDA-MB-231 [11] were over 1000 nM, 1340 nM and 898 nM, respectively. Also, the Activity entry in the assay on MDA-MB-231 [2] is “Dose-dependent effect”; with MDA-MB-231 [5] it was 11.77%; in the assay with MDA-MB-231 [9], 11.79%; in the assay with MDA-MB-231 [10], 35.5%. Also, the viability at 2.5 µM in the assay on MDA-MB-231 [3] was 84.2%. Further, in the assay with MDA-MB-231 [4], the viability at 5 µM stood at 71.5%. Moreover, in the assay with MDA-MB-231 [6], the viability at 10 µM worked out at 25.6%. Moreover, in assay [7], the inhibition entry was “Active”. In addition, the inhibition entry in the assay on MDA-MB-231 [17] is “Dose-dependent effect”.
